Results published in patent US6242600A, “2-piperazinone-1-acetic acid derivatives and their use” (Takeda Chemical Industries, Ltd., priority 1997, dated 2001).
pIC50: −log10 of the molar value.

Tested on: platelet aggregation induced by ADP (platelet rich plasma)
Assay: Inhibitory Effect on Platelet Aggregation in Guinea Pigs (induced by ADP)
Assay type: cell-based
Details: Cavia porcellus; guinea pig platelet rich plasma, about 400,000 platelets/μl, 37° C., ADP final concentration 1 μM, test drug added 2 minutes before ADP; read-out: Inhibition of platelet aggregation by ADP, IC50
Experimental: Blood was collected from abdominal aorta of male guinea pigs under anesthesia with pentobarbital (20 mg/kg, i.p.) using sodium citrate as an anticoagulant (final concentration: 0.315%). The sodium citrate-supplemented blood was centrifuged at 1000 g for […] to obtain platelet rich plasma (PRP), which was further centrifuged at 1000 g for 10 minutes respectively at room temperature to obtain platelet poor plasma (PPP). The number of platelet was counted at automatic platelet counter (Sysmex E2500, Toaiyo-denshi). PRP was diluted with PPP to adjust the number of platelets to be about 400,000/μl. Platelet aggregation was measured as follows, using an 8-channel aggregometer (NBS HEMA TRACER VI, Niko Bioscience Inc.): The PRP (250 μl) was incubated at 37° C. for 2 minutes, to n added 25 μl of a test drug solution. Two minutes later, 25 μl of an agent (ADP; finalconcentration: 1 μM) for causing agglutination. The effect of the test drug was shown by the inhibition rate of the maximum aggregation rate of the test group against that of the control group.

Row | SMILES | pIC50
1 | COC(=O)C[C@H]1C(=O)N(CC(=O)O)CCN1C(=O)[C@H](Cc1ccc(OC)cc1)NC(=O)C1CCN(c2ccncc2)CC1 [compound 9] | 7.15
2 | COC(=O)C[C@H]1C(=O)N(CC(=O)OC)CCN1C(=O)CCC(=O)N1CCN(c2ccccn2)CC1 [compound 12] | 7.42
3 | COC(=O)C[C@H]1C(=O)N(CC(=O)OC)CCN1C(=O)CCC(=O)N1CCN(c2ncccn2)CC1 [compound 14] | 7.12
4 | COC(=O)C[C@H]1C(=O)N(CC(=O)O)CCN1C(=O)[C@H](CC(=O)N1CCN(c2ccncc2)CC1)NC(=O)OC [compound 24] | 7.21
5 | CN[C@H](CC(=O)N1CCN(c2ccncc2)CC1)C(=O)N1CCN(CC(=O)O)C(=O)[C@@H]1CC(=O)OC [compound 40] | 7.24

Further molecules by rising pIC50, results first:

Row | pIC50 | SMILES
6 | 6.62 | COC(=O)C[C@H]1C(=O)N(CC(=O)O)CCN1C(=O)[C@H](CC(=O)N1CCN(c2ccncc2)CC1)NS(=O)(=O)c1ccc(OC)cc1 [compound 33]
7 | 6.66 | COC(=O)C[C@H]1C(=O)N(CC(=O)O)CCN1C(=O)[C@H](CC(=O)N1CCN(c2ccncc2)CC1)NCc1ccc(OC)cc1 [compound 36]
8 | 7.00 | COC(=O)C[C@H]1C(=O)N(CC(=O)O)CCN1C(=O)[C@@H](CC(=O)N1CCN(c2ccncc2)CC1)NC(=O)OCOC(=O)C(C)(C)C [compound 43]
9 | 7.22 | COC(=O)C[C@H]1C(=O)N(CC(=O)O)CCN1C(=O)[C@@H](CC(=O)N1CCN(c2ccncc2)CC1)NS(=O)(=O)c1ccc(OC)cc1 [compound 31]
10 | 7.36 | COC(=O)C[C@H]1C(=O)N(CC(=O)OC(C)(C)C)CCN1C(=O)[C@H](CC(=O)N1CCN(c2ccncc2)CC1)NC(=O)OC(C)(C)C [compound 20]
